The values below come from patent US6462089B1, “Method for correcting the vigilance disorders associated with myopathies” (priority 2000, dated 2002).

Series [1] deals with patients suffering from Steinert's disease (myotonic dystrophy). The settings on record: cited from earlier work.
Series [2] deals with c-fos proto-oncogene. The settings on record: cats, awakening doses; Lin et al. PNAS 1996; cited from earlier work.
The conditions of series [3]: cited from earlier work.
Series [4] relates to patients suffering from Steinert's disease. Put plainly: Karolinska KSS somnolence scale in patients suffering from Steinert's disease. The class given is in vivo, human. An excerpt: In the second patient of this series, the telling morphotype and a myotony of both hands associated with muscular deficiency existed. Without treatment, diurnal hypersomnia was very pronounced (Epworth scale: 16).

Series [5] has as its system patients suffering from myotonic dystrophy. The experiment in a line: Oral modafinil treatment of a series of patients with myotonic dystrophy and diurnal hypersomnia, subjective effect. The settings on record: oral doses of between 100 and 400 mg/day; majority of patients. The class given is in vivo, human.
Series [6] deals with dopamine. The settings on record: within the dose ranges which modify consciousness; cited from earlier work.
In series [7] the test system is patient suffering from Steinert's disease. Put plainly: Epworth somnolence scale in a patient suffering from Steinert's disease. The following applies: score before treatment 20. The class given is in vivo, human. As to the method: By way of example, in a patient suffering from Steinert's disease, which is characterized, inter alia, by a temporal atrophy, ptosis, a myotony associated with muscle weakness, behavioural disorders and somnolence (the start of which went back to 1988) with sleep paralyses, without hypnogogic hallucinations or attacks of cataplexy, a decrease was observed of 18 units on the Epworth somnolence scale (see Johns M. W. Sleep, 1991, 14, 540) after treatment with an oral dose of 100 mg per day of modafinil for six months, between February 1999 (score on the Epworth scale=20) and August 1999 (score on the Epworth scale=2).

Turning to `COC(=O)C(c1ccccc1)C1CCCCN1` (stereo not shown) [methylphenidate], in series [1] (Van der Meché et al. 1986), the level of consciousness entry was “improvement in the level of consciousness was observed”. Further, the “expression of c-fos proto-oncogene in the central dopaminergic projection zones (including the cortex)” value (“expression of c-fos proto-oncogene” for short) in series [2] is given as “highly expressed”.

Turning to `C[C@H](N)Cc1ccccc1` [d-amphetamine], in series [2], the “expression of c-fos proto-oncogene” value is on record as “highly expressed”.

Take `C#CCN(C)[C@H](C)Cc1ccccc1` [selegiline]: the “effectiveness on diurnal hypersomnolence” value in series [1] (dose of 20 mg/day, Antonini et al. 1997) is “ineffective”.

With `NC(=O)C[S+]([O-])C(c1ccccc1)c1ccccc1` (stereo not shown) [modafinil, benzhydrylsulphinylacetamide], in series [3] (addictive substance discrimination tests), the “generalization of the effects with amphetamine” value is reported as “very weak”. For the same compound, in series [3] (in vivo), the “self-administration and preference of place” value is “leads neither to self-administration nor to preference of place”; the self-administration of cocaine entry is “does not modify”. Also, the “personal and professional daily life” value in series [4] (patient, dose 200 mg/day) is reported as “considerable improvement”. Also, the “somnolence score on the Karolinska KSS scale after treatment” value in series [4] (patient, dose 200 mg/day, before: 8) turned out to be 2. In series [4] (second patient, dose 600 mg/day), the diurnal somnolence attacks entry was “partial resolution”. Moreover, in series [4] (second patient, dose 600 mg/day, before: 8), the “somnolence score on the Karolinska scale after treatment” value was found to be 4. Further, in series [5], the “effect of treatment on vigilance disorders and diurnal somnolence” value is reported as “subjectively effective”. Also, the effect on dopamine result in series [6] is “no effect”. Further, in series [7] (oral dose of 100 mg per day for six months (August 1999)), the “score on the Epworth scale after treatment” value amounted to 2. In addition, the “decrease on the Epworth somnolence scale” value in series [7] (oral dose of 100 mg per day for six months) was 18 units. The “expression of c-fos proto-oncogene” value in series [2] is “not expressed”.
